Reference: ChEMBL document CHEMBL1201862, “PubChem BioAssay data set” (2004)
The source made the active and inactive calls.

Experiments:
[1] = biological target: Peroxisome proliferator-activated receptor gamma/Nuclear receptor coactivator 2 (Homo sapiens, UniProt P37231); format: functional;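 also: agonist potency for raising coactivator recruitment to the receptor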
[2] = biological target: Peroxisome proliferator-activated receptor gamma/Nuclear receptor coactivator 1 (Homo sapiens, UniProt P37231); format: functional;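 also: agonist potency as compounds enhance coactivator SRC-1 recruitment to PPARgamma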
[3] = biological target: Peroxisome proliferator-activated receptor gamma/Nuclear receptor coactivator 3 (Homo sapiens, UniProt P37231); format: functional;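 also: agonist potency for raising coactivator recruitment to the receptor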
[4] = biological target: T1, Estrogen receptor beta (Homo sapiens, UniProt Q92731);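 also: recombinant ER-beta bound to coactivator SRC1 peptide in presence of estradiol agonist; inhibitors block coactivator peptide binding and lower the FRET signal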
[5] = biological target: T1, Estrogen receptor beta; test: blockers of SRC-3 recruitment to ERβ – biochemical, ELISA, streptavidin-HRP readout, orthogonal assay, confirmation (AID 1060)
[6] = viability of uninfected HEp-2 cells – cell-based, HTS, cytotoxicity control for RSV inhibitor project, dose response (AID 2410); format: functional; settings: human respiratory syncytial virus
[7] = cells
[8] = biological target: T2, Estrogen receptor (Homo sapiens, UniProt P03372);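 also: potency for inhibiting coactivator peptide recruitment to the receptor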
T2 sequence (P03372 whole entry): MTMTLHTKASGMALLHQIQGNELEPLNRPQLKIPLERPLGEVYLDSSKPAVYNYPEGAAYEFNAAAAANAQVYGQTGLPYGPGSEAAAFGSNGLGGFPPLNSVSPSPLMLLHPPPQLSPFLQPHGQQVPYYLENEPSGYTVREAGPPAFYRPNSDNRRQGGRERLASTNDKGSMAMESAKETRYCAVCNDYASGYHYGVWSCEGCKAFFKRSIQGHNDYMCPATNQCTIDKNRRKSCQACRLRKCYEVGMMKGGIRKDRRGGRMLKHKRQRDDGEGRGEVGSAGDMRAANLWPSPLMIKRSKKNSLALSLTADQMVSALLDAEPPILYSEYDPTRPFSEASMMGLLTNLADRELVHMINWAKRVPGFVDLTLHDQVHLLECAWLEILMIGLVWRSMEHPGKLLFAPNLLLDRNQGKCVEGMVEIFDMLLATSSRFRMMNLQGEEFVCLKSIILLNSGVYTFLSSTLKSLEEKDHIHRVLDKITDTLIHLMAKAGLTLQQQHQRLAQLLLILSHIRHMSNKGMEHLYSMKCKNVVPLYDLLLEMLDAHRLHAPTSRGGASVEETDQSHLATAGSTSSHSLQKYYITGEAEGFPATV

[9] = test system: Streptococcus sp. 'group A'; test: Streptococcus pyogenes SK(-)GAS viability under kanamycin – luminescence, BacTiterGlo, confirmation, counter-screen for streptokinase expression inhibitor project, dose response (AID 1900); format: functional, organism-based
[10] = biological target: T3, Streptokinase A (Streptococcus pyogenes serotype M1, UniProt P10520); test: viability-normalized secreted streptokinase activity reduction – plasminogen activation absorbance, OD405, dose response (AID 1914); format: functional, Streptococcus pyogenes M1 GAS;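 also: secreted streptokinase activity via plasminogen activation per viability signal from cell pellet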
T3 sequence (P10520 whole entry): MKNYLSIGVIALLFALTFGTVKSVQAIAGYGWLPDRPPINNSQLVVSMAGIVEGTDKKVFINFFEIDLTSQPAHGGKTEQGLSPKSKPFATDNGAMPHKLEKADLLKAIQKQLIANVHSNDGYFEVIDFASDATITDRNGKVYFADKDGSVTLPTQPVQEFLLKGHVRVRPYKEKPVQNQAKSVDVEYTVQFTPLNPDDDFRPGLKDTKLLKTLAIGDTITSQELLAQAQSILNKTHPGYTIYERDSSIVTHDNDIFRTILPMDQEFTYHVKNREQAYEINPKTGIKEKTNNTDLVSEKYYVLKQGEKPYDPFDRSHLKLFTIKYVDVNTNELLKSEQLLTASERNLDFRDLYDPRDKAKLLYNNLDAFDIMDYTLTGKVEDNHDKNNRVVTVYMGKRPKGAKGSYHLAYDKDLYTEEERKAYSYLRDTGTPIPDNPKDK

[11] = Trypanosoma cruzi growth suppression in host cells – NIH3T3 host cells, beta-gal luminescence, confirmation (AID 2044); format: functional, cell-based;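 also: intracellular parasites grown in NIH/3T3 mouse fibroblasts as host cells; luminescent beta-galactosidase reporter signal from transgenic T. cruzi replicating inside host cells; inhibitors lower the luminescence signal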
[12] = NIH3T3 cell viability loss – ATP luminescence, mouse fibroblasts, counter-screen, dose response (AID 2010); format: functional, cell-based;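 also: cells exposed to compound for about 90 hours before reading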
[13] = test system: Streptococcus; test: GAS UMAA2166 growth inhibition – luminescence, BacTiterGlo, counter-screen for streptokinase expression inhibitor project, dose response (AID 1915); format: functional, organism-based;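 also: potency for reduction of bacterial viability or growth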
[14] = biological target: 26S proteasome non-ATPase regulatory subunit 14 (Homo sapiens, UniProt O00487); test: inhibition of proteasome subunit RPN11 – biochemical, fluorescence polarization, uHTS hits, confirmation (AID 602368); format: functional
[15] = biological target: 72 kDa type IV collagenase (Homo sapiens, UniProt P08253); test: Dose Response validation of uHTS RPN11 inhibitor hits using a MMP-2 Fluorescence assay.; format: functional
[16] = biological target: Prothrombin (Bos taurus, UniProt P00735); test: thrombin protease inhibitors – biochemical, fluorescence polarization, uHTS hits, dose response (AID 602369); format: functional
[17] = cells; remark: listed apart in the source
[18] = biological target: Glyceraldehyde-3-phosphate dehydrogenase (Homo sapiens, UniProt P04406)
[19] = biological target: T4, Mannose-6-phosphate isomerase (Homo sapiens, UniProt P34949); test: MPI enzyme activity inhibition – biochemical, fluorescence intensity, coupled assay, primary screen (AID 1209)
T4 sequence (P34949 whole entry): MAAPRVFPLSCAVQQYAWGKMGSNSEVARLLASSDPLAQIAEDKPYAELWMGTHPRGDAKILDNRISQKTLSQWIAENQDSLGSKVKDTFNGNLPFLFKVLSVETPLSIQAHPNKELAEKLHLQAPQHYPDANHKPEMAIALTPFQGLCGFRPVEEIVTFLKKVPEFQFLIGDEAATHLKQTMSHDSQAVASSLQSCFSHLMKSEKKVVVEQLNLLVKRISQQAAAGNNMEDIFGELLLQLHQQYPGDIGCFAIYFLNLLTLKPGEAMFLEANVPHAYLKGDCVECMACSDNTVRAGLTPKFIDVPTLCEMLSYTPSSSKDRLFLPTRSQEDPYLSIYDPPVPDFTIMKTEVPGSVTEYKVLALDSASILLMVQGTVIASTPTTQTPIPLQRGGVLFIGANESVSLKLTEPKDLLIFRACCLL

[20] = biological target: T4, Mannose-6-phosphate isomerase; test: MPI inhibition at elevated mannose 6-phosphate – biochemical, fluorescence intensity, high mannose 6-phosphate, primary screen (AID 1220)
[21] = biological target: T5, Sentrin-specific protease 8 (Homo sapiens, UniProt Q96LD8); test: inhibition of human SENP8 cleavage activity – biochemical, luminescence, SAR follow-up (AID 504501); format: functional
T5 sequence (Q96LD8 whole entry): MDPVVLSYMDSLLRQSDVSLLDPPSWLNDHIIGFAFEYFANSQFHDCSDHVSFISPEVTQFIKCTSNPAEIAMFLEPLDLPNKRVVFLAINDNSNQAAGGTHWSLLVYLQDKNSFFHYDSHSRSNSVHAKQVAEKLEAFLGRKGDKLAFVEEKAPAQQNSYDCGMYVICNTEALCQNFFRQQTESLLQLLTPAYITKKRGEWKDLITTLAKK

[22] = biological target: T6, Caspase-3 (Homo sapiens, UniProt P42574); test: SAR Analysis of small molecule inhibitors of Sentrin-specific proteases (SENPs) using a Caspase-3 Selectivity assay. [Related pubchem assays (depositor defined):AID2540, AID2599, AID434973, AID489001]; format: functional
T6 sequence (P42574 whole entry): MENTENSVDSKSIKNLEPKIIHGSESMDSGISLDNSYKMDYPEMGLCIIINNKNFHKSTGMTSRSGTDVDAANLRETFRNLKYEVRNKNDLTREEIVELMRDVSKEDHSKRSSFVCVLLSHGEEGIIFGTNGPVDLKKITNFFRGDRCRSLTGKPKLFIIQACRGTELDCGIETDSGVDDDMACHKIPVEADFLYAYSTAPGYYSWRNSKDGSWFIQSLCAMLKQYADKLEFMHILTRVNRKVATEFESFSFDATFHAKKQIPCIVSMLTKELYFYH

[23] = biological target: T7, Sentrin-specific protease 6 (Homo sapiens, UniProt Q9GZR1); test: SAR Analysis of small molecule inhibitors of Sentrin-specific protease 6 (SENP6) using a Luminescent assay. [Related pubchem assays (depositor defined):AID2582, AID2599]; format: functional
T7 sequence (Q9GZR1 whole entry): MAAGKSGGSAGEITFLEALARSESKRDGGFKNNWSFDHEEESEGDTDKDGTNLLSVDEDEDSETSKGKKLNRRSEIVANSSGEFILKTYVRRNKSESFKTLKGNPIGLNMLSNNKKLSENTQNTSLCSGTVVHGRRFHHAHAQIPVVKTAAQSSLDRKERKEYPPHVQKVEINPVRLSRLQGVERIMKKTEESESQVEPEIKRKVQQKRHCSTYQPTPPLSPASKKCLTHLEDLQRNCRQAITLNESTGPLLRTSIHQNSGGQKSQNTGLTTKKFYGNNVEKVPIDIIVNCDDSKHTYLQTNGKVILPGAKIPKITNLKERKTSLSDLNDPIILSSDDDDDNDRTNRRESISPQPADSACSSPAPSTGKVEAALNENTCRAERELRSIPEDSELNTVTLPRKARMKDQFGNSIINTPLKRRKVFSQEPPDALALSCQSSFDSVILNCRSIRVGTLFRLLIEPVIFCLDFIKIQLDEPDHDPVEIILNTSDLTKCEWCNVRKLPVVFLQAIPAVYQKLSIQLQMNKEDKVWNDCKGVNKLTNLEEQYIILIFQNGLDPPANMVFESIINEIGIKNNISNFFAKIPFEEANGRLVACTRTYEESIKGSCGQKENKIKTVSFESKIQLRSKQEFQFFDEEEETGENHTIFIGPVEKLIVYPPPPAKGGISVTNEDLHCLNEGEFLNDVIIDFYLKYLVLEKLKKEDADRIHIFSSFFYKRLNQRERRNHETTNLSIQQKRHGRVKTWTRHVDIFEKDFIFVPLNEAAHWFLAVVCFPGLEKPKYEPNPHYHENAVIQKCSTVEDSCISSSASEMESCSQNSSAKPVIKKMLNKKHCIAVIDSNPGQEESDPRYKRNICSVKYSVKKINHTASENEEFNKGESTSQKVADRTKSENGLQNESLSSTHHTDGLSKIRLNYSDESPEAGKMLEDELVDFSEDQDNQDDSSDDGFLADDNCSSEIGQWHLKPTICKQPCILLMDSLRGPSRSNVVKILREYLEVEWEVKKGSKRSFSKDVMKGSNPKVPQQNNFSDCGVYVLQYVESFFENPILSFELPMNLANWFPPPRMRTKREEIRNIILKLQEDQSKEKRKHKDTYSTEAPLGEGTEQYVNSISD

[24] = biological target: T8, Sentrin-specific protease 7 (Homo sapiens, UniProt Q9BQF6); test: inhibition of human SENP7 cleavage activity – biochemical, luminescence, SAR follow-up (AID 504497); format: functional
T8 sequence (Q9BQF6 whole entry): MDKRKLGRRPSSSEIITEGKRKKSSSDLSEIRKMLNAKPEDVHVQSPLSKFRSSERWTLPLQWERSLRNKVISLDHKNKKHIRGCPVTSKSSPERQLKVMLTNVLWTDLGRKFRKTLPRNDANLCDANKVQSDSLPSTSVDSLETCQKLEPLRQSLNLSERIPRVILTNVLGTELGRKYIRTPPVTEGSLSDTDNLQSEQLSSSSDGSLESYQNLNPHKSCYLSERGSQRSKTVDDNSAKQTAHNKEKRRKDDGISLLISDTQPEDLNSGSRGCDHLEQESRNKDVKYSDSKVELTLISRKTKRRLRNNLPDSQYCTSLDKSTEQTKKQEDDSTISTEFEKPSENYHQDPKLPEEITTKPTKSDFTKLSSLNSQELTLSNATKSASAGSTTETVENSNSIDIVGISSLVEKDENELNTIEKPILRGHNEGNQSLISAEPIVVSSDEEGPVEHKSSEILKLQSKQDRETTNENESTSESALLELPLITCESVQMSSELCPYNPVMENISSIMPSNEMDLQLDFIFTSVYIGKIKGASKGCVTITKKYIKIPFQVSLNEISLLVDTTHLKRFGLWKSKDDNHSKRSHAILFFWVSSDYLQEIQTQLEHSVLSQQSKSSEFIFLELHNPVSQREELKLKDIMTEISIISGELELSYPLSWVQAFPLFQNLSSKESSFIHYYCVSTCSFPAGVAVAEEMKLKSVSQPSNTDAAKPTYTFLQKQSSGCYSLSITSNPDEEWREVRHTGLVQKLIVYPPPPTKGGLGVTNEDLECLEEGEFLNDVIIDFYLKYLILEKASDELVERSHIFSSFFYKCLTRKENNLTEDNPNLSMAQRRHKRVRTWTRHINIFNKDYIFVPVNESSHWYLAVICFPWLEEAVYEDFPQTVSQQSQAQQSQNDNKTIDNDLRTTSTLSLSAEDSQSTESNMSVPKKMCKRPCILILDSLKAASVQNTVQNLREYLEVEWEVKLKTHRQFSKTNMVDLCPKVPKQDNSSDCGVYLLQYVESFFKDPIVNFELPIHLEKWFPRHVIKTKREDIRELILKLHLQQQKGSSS

T1 sequence (Q92731 whole entry): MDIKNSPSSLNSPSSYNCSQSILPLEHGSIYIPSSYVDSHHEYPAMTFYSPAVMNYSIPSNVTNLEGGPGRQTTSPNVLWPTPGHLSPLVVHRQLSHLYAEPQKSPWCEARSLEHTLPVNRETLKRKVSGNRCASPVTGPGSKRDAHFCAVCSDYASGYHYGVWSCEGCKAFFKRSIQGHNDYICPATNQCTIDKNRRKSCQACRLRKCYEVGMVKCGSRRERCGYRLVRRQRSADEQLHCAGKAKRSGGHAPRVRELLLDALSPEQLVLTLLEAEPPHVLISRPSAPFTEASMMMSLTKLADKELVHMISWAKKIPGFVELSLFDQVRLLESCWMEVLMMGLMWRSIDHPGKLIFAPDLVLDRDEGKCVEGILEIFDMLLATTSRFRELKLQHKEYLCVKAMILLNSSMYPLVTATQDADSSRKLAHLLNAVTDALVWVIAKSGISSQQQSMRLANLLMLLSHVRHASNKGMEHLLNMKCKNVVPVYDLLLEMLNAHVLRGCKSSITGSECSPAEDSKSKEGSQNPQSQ
26S proteasome non-ATPase regulatory subunit 14, sequence (O00487 whole entry): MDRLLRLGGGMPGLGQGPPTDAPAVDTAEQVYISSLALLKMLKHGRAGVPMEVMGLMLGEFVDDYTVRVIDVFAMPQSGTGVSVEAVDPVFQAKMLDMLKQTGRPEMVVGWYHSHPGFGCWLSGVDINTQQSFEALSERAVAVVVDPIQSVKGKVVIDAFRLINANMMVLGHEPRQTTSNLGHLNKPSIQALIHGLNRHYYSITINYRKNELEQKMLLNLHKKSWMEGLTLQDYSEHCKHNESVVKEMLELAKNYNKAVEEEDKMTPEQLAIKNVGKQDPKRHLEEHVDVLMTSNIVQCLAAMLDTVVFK
72 kDa type IV collagenase, sequence (P08253 whole entry): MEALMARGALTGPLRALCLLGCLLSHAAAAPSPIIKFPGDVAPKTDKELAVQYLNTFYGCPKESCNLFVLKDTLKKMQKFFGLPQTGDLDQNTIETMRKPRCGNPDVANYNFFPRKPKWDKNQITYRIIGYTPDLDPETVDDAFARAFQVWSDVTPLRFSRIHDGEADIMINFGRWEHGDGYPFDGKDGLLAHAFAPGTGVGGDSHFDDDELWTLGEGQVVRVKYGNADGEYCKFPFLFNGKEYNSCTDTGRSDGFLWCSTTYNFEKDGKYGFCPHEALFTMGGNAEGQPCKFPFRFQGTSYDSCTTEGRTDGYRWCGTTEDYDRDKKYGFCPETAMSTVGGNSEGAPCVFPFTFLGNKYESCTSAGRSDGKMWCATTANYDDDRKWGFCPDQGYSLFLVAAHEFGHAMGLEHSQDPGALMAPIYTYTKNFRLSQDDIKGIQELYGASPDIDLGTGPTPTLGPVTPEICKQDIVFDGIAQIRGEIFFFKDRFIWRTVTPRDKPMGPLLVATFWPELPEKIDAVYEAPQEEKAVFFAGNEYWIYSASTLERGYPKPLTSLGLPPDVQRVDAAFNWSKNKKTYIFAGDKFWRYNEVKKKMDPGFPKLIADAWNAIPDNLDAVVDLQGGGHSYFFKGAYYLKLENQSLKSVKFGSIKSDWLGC
Glyceraldehyde-3-phosphate dehydrogenase, sequence (P04406 whole entry): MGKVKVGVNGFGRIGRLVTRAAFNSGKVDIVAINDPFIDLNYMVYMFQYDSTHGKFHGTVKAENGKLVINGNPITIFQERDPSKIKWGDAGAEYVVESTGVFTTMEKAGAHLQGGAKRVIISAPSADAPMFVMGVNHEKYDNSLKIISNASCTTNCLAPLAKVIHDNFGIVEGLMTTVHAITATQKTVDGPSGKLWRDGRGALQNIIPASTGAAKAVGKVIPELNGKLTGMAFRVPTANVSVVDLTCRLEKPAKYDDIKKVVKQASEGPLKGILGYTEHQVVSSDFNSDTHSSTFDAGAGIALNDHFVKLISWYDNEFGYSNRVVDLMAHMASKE
Peroxisome proliferator-activated receptor gamma/Nuclear receptor coactivator 1, sequence (P37231 whole entry): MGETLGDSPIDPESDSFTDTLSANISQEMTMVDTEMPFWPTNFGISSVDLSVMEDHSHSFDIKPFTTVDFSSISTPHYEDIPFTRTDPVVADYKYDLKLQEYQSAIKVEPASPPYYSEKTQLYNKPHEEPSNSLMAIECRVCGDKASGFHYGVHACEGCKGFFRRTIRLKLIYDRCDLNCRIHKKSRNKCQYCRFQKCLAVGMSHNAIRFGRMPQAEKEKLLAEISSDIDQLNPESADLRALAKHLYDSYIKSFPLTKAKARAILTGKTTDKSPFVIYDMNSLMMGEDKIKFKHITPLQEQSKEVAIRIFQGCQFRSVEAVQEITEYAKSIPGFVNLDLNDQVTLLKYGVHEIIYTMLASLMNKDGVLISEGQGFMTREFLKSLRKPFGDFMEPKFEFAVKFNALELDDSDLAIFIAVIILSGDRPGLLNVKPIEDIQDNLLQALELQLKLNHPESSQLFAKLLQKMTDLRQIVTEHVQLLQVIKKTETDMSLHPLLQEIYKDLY
Peroxisome proliferator-activated receptor gamma/Nuclear receptor coactivator 1, sequence (Q15788 whole entry, further chain): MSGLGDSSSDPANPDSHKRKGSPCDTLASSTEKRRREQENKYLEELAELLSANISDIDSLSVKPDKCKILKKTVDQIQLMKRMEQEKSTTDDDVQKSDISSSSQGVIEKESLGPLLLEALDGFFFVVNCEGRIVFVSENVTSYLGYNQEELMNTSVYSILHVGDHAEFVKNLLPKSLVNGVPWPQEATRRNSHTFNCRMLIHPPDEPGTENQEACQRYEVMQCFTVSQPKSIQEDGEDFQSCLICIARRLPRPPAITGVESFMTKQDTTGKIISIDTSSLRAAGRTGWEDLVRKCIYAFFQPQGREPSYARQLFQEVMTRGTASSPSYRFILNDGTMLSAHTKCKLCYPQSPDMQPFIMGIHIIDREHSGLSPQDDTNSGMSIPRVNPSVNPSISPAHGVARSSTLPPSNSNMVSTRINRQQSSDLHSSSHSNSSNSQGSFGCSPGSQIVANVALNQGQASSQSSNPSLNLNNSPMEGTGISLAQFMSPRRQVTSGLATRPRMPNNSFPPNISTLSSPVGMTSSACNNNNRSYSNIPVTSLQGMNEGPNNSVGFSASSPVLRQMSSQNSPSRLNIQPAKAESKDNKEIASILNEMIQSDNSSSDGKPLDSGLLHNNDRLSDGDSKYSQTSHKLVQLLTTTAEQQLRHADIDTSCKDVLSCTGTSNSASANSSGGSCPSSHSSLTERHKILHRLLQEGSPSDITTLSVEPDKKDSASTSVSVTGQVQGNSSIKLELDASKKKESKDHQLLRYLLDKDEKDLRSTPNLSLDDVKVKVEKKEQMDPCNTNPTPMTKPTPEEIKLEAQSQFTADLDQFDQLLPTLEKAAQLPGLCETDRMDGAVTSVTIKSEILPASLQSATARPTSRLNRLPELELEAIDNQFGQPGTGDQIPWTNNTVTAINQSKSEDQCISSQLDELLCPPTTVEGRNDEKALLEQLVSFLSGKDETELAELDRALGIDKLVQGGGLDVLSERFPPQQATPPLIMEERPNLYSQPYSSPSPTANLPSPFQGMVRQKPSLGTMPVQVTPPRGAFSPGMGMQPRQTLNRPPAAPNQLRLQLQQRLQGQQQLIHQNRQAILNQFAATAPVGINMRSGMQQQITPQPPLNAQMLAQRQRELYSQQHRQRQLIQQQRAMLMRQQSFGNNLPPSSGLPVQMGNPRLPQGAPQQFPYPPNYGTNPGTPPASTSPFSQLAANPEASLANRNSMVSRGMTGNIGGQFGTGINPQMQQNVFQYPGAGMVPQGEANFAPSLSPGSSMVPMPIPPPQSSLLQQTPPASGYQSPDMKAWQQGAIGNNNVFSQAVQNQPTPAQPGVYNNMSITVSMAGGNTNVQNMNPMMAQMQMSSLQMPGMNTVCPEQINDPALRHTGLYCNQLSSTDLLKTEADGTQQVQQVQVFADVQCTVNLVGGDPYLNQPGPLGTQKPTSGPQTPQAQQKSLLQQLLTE

## c1csc(Cc2nn3c(-c4n[nH]c5c4CCC5)nnc3s2)c1
[1]
  EC50: > 79.4 µM (not active)
[2]
  EC50: > 79.4 µM (not active)
[3]
  EC50: > 79.4 µM (not active)
[4]
  IC50: > 50 µM (not active)
[5]
  IC50: > 50 µM (not active)

## Cc1ccc(NC(=O)C2CCCN2S(=O)(=O)c2cccc3cccnc23)c(C)c1 (stereo unspecified)
[6]
  CC50: 42.9 µM (active)
[7]
  IC50: 1.86 µM (active)

## Cc1ccc(NS(=O)(=O)c2cccc(C(=O)OCC(=O)NCc3ccco3)c2)cc1
[8]
  IC50: 30.6 µM (not active)

## COc1ccccc1/C=C/C(=O)N1CCc2cc(OC)c(OC)cc2C1C (stereo unspecified)
[6]
  CC50: > 50 µM (active)
[7]
  IC50: 17.8 µM (active)

## COc1ccc2nc3c(O)n(/N=C/c4ccc(OC)c(CN5CCCC5)c4)c(C)nc-3c2c1
[9]
  EC50: 17.8 µM (active)
[10]
  EC50: 32.3 µM (active)
[11]
  EC50: < 0.1 µM (active)
[12]
  EC50: > 60 µM (not active)
[13]
  EC50: > 150 µM (not active)
[14]
  IC50: 13 µM (active)
[15]
  IC50: > 100 µM (inactive)
[16]
  IC50: 87.9 µM (active)
[17]
  EC50: 0.336 µM (active)

## O=C1C(Cl)=C(N2CCN(C/C=C/c3ccccc3)CC2)C(=O)N1c1ccc(C(F)(F)F)cc1
[18]
  IC50: > 50 µM (inconclusive)

## Oc1cccc(/C=N/Nc2cc(N3CCOCC3)nc(N3CCOCC3)n2)c1
[19]
  IC50: > 50 µM (not active)
[20]
  IC50: > 50 µM (not active)
[21]
  IC50: > 99 µM (inactive)
[22]
  IC50: > 99 µM (inactive)
[23]
  IC50: 89.1 µM (active)
[24]
  IC50: 80.5 µM (active)
